Results: PMC3544154 (Nature communications, 2011)

System: neuroligin-1 induced synaptogenesis
Experiment: Synapse microarray coculture assay: NLG1-induced synapsin clustering
Type: cell-based, rat
Conditions: for activity in coculture assay / NLG1-induced synaptogenesis (in words): synapse microarray, no single concentration stated

SMILES	activity in coculture assay / NLG1-induced synaptogenesis (in words)	effect on NLG1-induced synaptogenesis (in words) (10 μM)
CCC(=O)CCCCC[C@@H]1NC(=O)[C@H]2CCCCN2C(=O)[C@H]([C@@H](C)CC)NC(=O)[C@H](Cc2cn(OC)c3ccccc23)NC1=O [apicidin]	greater potency than MS-275	–
Cc1[nH]c2ccccc2c1CCNCc1ccc(/C=C/C(=O)NO)cc1 [LBH-589]	potent	–
CCCC(CCC)C(=O)O [valproic acid]	–	neither of the two compounds, valproic acid and phenylbutyric acid, affected synaptogenesis
O=C(CCCCCN1C(=O)c2cccc3cccc(c23)C1=O)NO [scriptaid]	potent	–
